The record followed here is patent publication EP4813463A2, “TYK2 INHIBITORS AND COMPOSITIONS AND METHODS THEREOF” (Lynk Pharmaceuticals Co. Ltd., priority 2023, dated 2024).

In one data set the test system is pSTAT1. The data set can be described thus: Phosphorylation inhibition of STAT in human whole blood (IFN-alpha stimulated, flow cytometry). The format is cell-based. The following applies: T-cell, 20 min, IFN-alpha stimulation 20 mins, CD3 T cells, read-out: pSTAT1 inhibition in hWB (IC50). The method in brief: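 Fresh human whole blood stimulated 20 min with human universal type I IFN-alpha, then fixed, permeabilised and stained for CD3 and pSTAT1 (Y701). pSTAT1 in T cells read by flow cytometry; IC50 from 4-parameter logistic fit.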

For data set [1], the system named is Ba/F3-FL-TYK2-P760L cells. The data set can be described thus: Anti-proliferative assay in engineered Ba/F3 cells (Cell-Titer Glo, 72 h). The format is cell-based. The following applies: Mus musculus, BaF3, 72 h, 72 h compound treatment, concentration that causes 50% growth inhibition, read-out: Baf3-FL-T2P760L. An outline of the steps:
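IC50 from luminescent ATP viability after 72 h compound exposure (37 °C, 5% CO2), % inhibition normalised to DMSO-treated cells minus medium blank. IL-3-free Ba/F3-FL-TYK2-P760L (Tel-JAK fusion) cells in 10% FBS RPMI-1640 received 9 three-fold doses, top 20 µM, 0.1% DMSO.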

Another data set deals with T1, TYK2-JH2 domain (Homo sapiens, UniProt P29597).
T1 construct: JAK1-JH2 domain or TYK2-JH2 domain enzyme in assay buffer
T1 sequence (P29597 589-875 limits assumed): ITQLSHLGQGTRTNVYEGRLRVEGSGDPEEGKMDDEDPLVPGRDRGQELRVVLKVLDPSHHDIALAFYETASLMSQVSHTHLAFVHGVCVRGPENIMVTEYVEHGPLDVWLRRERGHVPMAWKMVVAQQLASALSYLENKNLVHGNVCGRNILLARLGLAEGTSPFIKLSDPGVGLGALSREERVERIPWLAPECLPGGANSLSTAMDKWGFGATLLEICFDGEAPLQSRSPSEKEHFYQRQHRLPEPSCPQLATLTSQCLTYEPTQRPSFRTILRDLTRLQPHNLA
The data set can be described thus: Binding activity test for JH2 domain of TYK2 (Tb-antibody/tracer FRET). As to conditions: for IC50: JH2 domain enzyme, 60 min at 25°C, then 4°C overnight, read-out: TYK2 JH2 Binding IC50; for JAK1/TYK2 selectivity: ratio of JAK1 JH2 to TYK2 JH2 binding IC50. An outline of the steps:
(§1)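 IC50 values (nM) come from TR-FRET readings taken after a 25°C incubation followed by overnight at 4°C. Each well held JH2 domain protein, Tb-antibody, tracer and test compound titrated in 11 threefold steps, with DMSO high and low controls.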

The next data set has as its target T2, JAK1-JH2 domain (Homo sapiens, UniProt P23458).
T2 construct: JAK1-JH2 domain or TYK2-JH2 domain enzyme in assay buffer
Kind of data set: Binding activity test for JH2 domain of JAK1 (Tb-antibody/tracer FRET). As to conditions: JH2 domain enzyme; 60 min at 25°C, then 4°C overnight; read-out: JAK1 JH2 Binding IC50. An outline of the steps:
as §1

The nature of the next data set: Kinetic solubility. The format is physicochemical. The following applies: phosphate buffer, pH 7.4, aqueous buffer, kinetic from dmso stock, 100 mM pH 7.4 phosphate buffer, 1% DMSO, room temperature, read-out: Kinetics Solubility_PBS7.4. As for the experimental part:
Aliquots of 8 µL of reference and test compound stock solutions (10 mM/5 mM) are added into 792 µL of 100 mM pH 7.4 phosphate buffer. The final DMSO concentration is 1%. Sample tubes are shaken for 2 hours at 1000 rpm at room temperature. Samples are centrifuged at 12000 rpm for 10 min to precipitate un-dissolved particles. And transfer the supernatants to a new tube or plate. Add 5 µL of samples (no diluted, 10 times diluted, and 100 times diluted) and standard curve samples to 95 µL of ACN containing IS for LC-MS/MS analysis. Kinetic Solubilities Values of Exemplary Compounds

A short description of data set [2]: Microsomal metabolic stability assay. Format: in vitro ADME. The following applies: human, liver microsomes, pH 7.4, 0.5 mg/mL microsomal protein, 1 µM test article, 2 mM NADPH; for microsomal CLint at 1 µM: read-out: Human LM Clint; for half-life at 1 µM: read-out: Human LM T1/2. The method in brief:
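Test or control compound (1 µM) incubated with microsomes (0.5 mg/mL protein) in 100 mM potassium phosphate pH 7.4, 1.0 mM EDTA at 37°C, started with NADPH regenerating system (2 mM NADPH). Sampled at 0, 5, 15, 30, 45 min, acetonitrile-quenched, LC/MS/MS. T1/2 from ln %remaining vs time slope; CLint = 0.693/T1/2 per mg protein/mL.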

The next data set in a line: Caco-2 cell permeability. Format: in vitro ADME. As to conditions: human, Caco-2, 10.0 µM, no p-gp inhibitor. As for the experimental part:
Compounds permeability was evaluated using Caco-2 cell lines. HBSS buffer was used as transfer buffer. Appropriate dosing and receiver solutions were applied to the donor and receiver chambers to initiate the transport assay in apical to basolateral (A to B) or basolateral to apical (B to A) directions. Compounds were tested at 10.0 µM in the absence of p-gp inhibitor bidirectionally in duplicates. After incubation at 37°C for 90 mins, donor and receiver samples were analyzed by LC-MS/MS. The intestinal absorption potential was assessed using Papp value and efflux ratio.

A short description of data set [3]: Brain pharmacokinetic studies in rats. Format: in vivo, Sprague-Dawley rats. As for the experimental part:
Pharmacokinetic profiles of test articles were evaluated in fasted Sprague-Dawley rats. Different kinds of formulations were designed to ensure test articles fully dissolved and wouldn't precipitate in 1:10 SGF or FaSSIF dilution. Typically, Rats were dosed with 3 mg/kg and 5 mg/kg by intravenous injection and oral gavage, respectively. The animal was restrained manually at the designated time points, approximately 150 µL of blood sample was collected via jugular vein for serial bleeding into K2EDTA tubes. The blood samples were maintained in wet ice first and centrifuged to obtain plasma (2000g, 4°C, 5 min) within 30 minutes post sampling. Anesthetizing the rat with the Isoflurane vaporizer to 2%~3% and place its back on the operation table. Spread the animal limbs and pin the limbs on the operation table. Make a cut along the sternum about 4cm long, low enough to expose the sternum's end. Expose the heart and use a 25-gauge needle connected with a 20 mL syringe filled with 20 mL of cold saline to pierce the left ventricle. Maintain the placement of the needle, and slowly push the syringe plunger to wash the brain with saline. The perfusion will be finished within about 2 min and then take the brain out of the body carefully without damaging the tissue. Dry the tissue on filtrate paper, which should be placed on ice, and then weigh the brain tissue and store at -70 °C and analyzed by LC/MS/MS for quantification. PK parameter values, including, but not necessarily limited to, the maximum plasma concentrations (Cmax), and the area under the plasma concentration vs. time curve (AUC) from time zero to 24-hour (AUC0-24h) were determined using WinNonlin program. Table 13. Systemic Pharmacokinetic Parameters in Sprague-Dawley Rats

In brackets after ≈: the same amount, converted by molar mass. Where two headings read alike, the source gives them in different places.

T2 sequence (P23458 583-855 limits assumed): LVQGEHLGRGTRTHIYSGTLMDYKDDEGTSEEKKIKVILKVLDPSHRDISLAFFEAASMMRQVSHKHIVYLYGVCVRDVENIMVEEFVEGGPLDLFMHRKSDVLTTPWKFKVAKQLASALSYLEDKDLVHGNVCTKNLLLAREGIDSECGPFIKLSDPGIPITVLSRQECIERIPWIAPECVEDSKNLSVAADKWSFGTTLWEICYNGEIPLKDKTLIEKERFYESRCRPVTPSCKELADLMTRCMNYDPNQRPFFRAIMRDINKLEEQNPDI

As for `[2H]C([2H])([2H])NC(=O)c1cnc(NC(=O)C2CC2)cc1Nc1cnn2ccc(Cl)c(OC)c12` [Example 3, 4-((5-Chloro-4-methoxypyrazolo[1,5-a]pyridin-3-yl)amino)-6-(cyclopropanecarboxamido)-N-(methyl-d3)nicotinamide], the IC50 with pSTAT1 was found to be 177 nM; in data set [1], 43.6 nM; on TYK2-JH2 domain, 0.223 nM; at JAK1-JH2 domain, 13.4 nM. The JAK1/TYK2 selectivity at TYK2-JH2 domain was determined as 59.9. In “Kinetic solubility”, the solubility kinetic at 2 h worked out at 15.1 µM (≈ 6.31 µg/mL).
`[2H]C([2H])([2H])NC(=O)c1cnc(NC(=O)C2CC2)cc1Nc1cnn2ccc(C)c(OC)c12` [Example 5, 6-(Cyclopropanecarboxamido)-4-((4-methoxy-5-methylpyrazolo[1,5-a]pyridin-3-yl)amino)-N-(methyl-d3)nicotinamide]: the IC50 in the data set with pSTAT1 was 139 nM; in data set [1], 32 nM; at TYK2-JH2 domain, 0.137 nM; at JAK1-JH2 domain it was 6.62 nM. The JAK1/TYK2 selectivity at TYK2-JH2 domain turned out to be 48.3. For the same compound, the solubility kinetic at 2 h in the data set “Kinetic solubility” came out at 57.4 µM (≈ 22.8 µg/mL).
Take `[2H]C([2H])([2H])NC(=O)c1cnc(NC(=O)C2CC2)cc1Nc1cnn2ccc(C(O)C(F)(F)F)c(OC)c12` (centres unmarked) [Example 7, 6-(Cyclopropanecarboxamido)-4-((4-methoxy-5-(2,2,2-trifluoro-1-hydroxyethyl)pyrazolo[1,5-a]pyridin-3-yl)amino)-N-(methyl-d3)nicotinamide]: the IC50 in the data set on pSTAT1 was determined as 67.4 nM; in data set [1], 9.32 nM; on TYK2-JH2 domain it was 0.147 nM; at JAK1-JH2 domain, 11 nM. On TYK2-JH2 domain, the JAK1/TYK2 selectivity is listed as 74.9. In “Kinetic solubility”, the solubility kinetic at 2 h is 42.9 µM (≈ 20.7 µg/mL).
As for `[2H]C([2H])([2H])NC(=O)c1cnc(NC(=O)C2CC2)cc1Nc1cnn2ccc(CC(F)(F)F)c(OC)c12` [Example 8, 6-(Cyclopropanecarboxamido)-4-((4-methoxy-5-(2,2,2-trifluoroethyl)pyrazolo[1,5-a]pyridin-3-yl)amino)-N-(methyl-d3)nicotinamide], the IC50 in the data set on pSTAT1 is 75.5 nM; in data set [1], 31.3 nM; on TYK2-JH2 domain, 0.106 nM; on JAK1-JH2 domain it was 3.39 nM. Moreover, the JAK1/TYK2 selectivity at TYK2-JH2 domain amounted to 32.0. In addition, the solubility kinetic at 2 h in the data set “Kinetic solubility” is 18.6 µM (≈ 8.63 µg/mL).
As for `[2H]C([2H])([2H])NC(=O)c1cnc(NC(=O)C2CC2)cc1Nc1cnn2ccc(C(C)O)c(OC)c12` (centres unmarked) [Example 23, 6-(Cyclopropanecarboxamido)-4-((5-(1-hydroxyethyl)-4-methoxypyrazolo[1,5-a]pyridin-3-yl)amino)-N-(methyl-d3)nicotinamide], in data set [2], the microsomal CLint at 1 µM came out at 0.17 µL/min/mg and the half-life at 1 µM was determined as 132 h. In addition, the IC50 in data set [1] came to 166 nM. The Papp A→B at 90 min, 10 µM in “Caco-2 cell permeability” (90 mins, A to B) came out at 0.46 ×10⁻⁶ cm/s. Besides, the Papp B→A at 90 min, 10 µM in “Caco-2 cell permeability” (90 mins, B to A) was determined as 37.6 ×10⁻⁶ cm/s. Also, the efflux ratio at 90 min, 10 µM in “Caco-2 cell permeability” (read-out: Efflux Ratio: Papp(B-A)/Papp(A-B)) amounted to 82.7. Moreover, on TYK2-JH2 domain, the IC50 came out at 0.185 nM and the JAK1/TYK2 selectivity is reported as 72.7. Further, the IC50 on JAK1-JH2 domain is 13.5 nM.
With `[2H]C([2H])([2H])NC(=O)c1cnc(Nc2ccc(F)cn2)cc1Nc1cnn2ccc([C@H](O)C(F)(F)F)c(OC)c12` [Example 24, (S)-6-((5-fluoropyridin-2-yl)amino)-4-((4-methoxy-5-(2,2,2-trifluoro-1-hydroxyethyl)pyrazolo[1,5-a]pyridin-3-yl)amino)-N-(methyl-d3)nicotinamide], the microsomal CLint at 1 µM in data set [2] came to 24.6 µL/min/mg. Further, in data set [2], the half-life at 1 µM is 0.937 h. Also, the IC50 in the data set on pSTAT1 came out at 34.6 nM; in data set [1] it was 3.87 nM; on TYK2-JH2 domain, 0.066 nM; at JAK1-JH2 domain, 18.6 nM. Moreover, the JAK1/TYK2 selectivity on TYK2-JH2 domain was found to be 281.8. Further, the solubility kinetic at 2 h in the data set “Kinetic solubility” is 10.4 µM (≈ 5.27 µg/mL).
As to `COC(=O)c1cnc(NC(=O)C2CC2)cc1Nc1cnn2ccc([C@H](OC)C(F)(F)F)c(OC)c12` [Example 42, Methyl (S)-6-(cyclopropanecarboxamido)-4-((4-methoxy-5-(2,2,2-trifluoro-1-methoxyethyl)pyrazolo[1,5-a]pyridin-3-yl)amino)nicotinate], the IC50 is 104 nM in data set [1], 0.202 nM on TYK2-JH2 domain and 79 nM on JAK1-JH2 domain. Also, the JAK1/TYK2 selectivity at TYK2-JH2 domain amounted to 391.2. Further, the half-life was 15 min in data set [3] (Sprague-Dawley, rat, brain, rats, iv, 3 mg/kg, solution) and 20.4 min in data set [3] (Sprague-Dawley, rat, systemic (plasma), rats, iv, 3 mg/kg, solution). Moreover, in data set [3] (Sprague-Dawley, rat, brain, rats, iv, 3 mg/kg, solution, read-out: Brain AUC/Systemic AUC), the Kp amounted to 1.99. For the same compound, the AUC in data set [3] (Sprague-Dawley, rat, systemic (plasma), rats, iv, 3 mg/kg, solution, read-out: AUC) turned out to be 646 ng·h/mL; in data set [3] (brain, rats, iv, 3 mg/kg, solution), 1286 ng·h/g. Further, the “brain exposure in Rats” value in data set [3] (result in words) is “good brain exposure”.
`[2H]C([2H])([2H])NC(=O)c1cnc(NC(=O)C2CC2)cc1Nc1nn(C)c2ccc([C@H](OC)C(F)(F)F)c(OC)c12` [Example 46A, (S)-6-(cyclopropanecarboxamido)-4-((4-methoxy-1-methyl-5-(2,2,2-trifluoro-1-methoxyethyl)-1H-indazol-3-yl)amino)-N-(methyl-d3)nicotinamide]: the IC50 in the data set with pSTAT1 is 33 nM; in data set [1], 0.31 nM; at TYK2-JH2 domain, 0.074 nM; at JAK1-JH2 domain it was 3.01 nM. Further, on TYK2-JH2 domain, the JAK1/TYK2 selectivity turned out to be 40.64. Moreover, in “Kinetic solubility”, the solubility kinetic at 2 h was 8.16 µM (≈ 4.16 µg/mL).
With `[2H]C([2H])([2H])NC(=O)c1cnc(NC(=O)C2CC2)cc1Nc1nn(C)c2ccc(C(O)C(F)(F)F)c(OC)c12` (centres unmarked) [Example 49, 6-(Cyclopropanecarboxamido)-4-((4-methoxy-1-methyl-5-(2,2,2-tritluoro-1-hydroxyethyl)-1H-indazol-3-yl)amino)-N-(methyl-d3)nicotinamide], in data set [2], the microsomal CLint at 1 µM is 15.7 µL/min/mg. Besides, in data set [2], the half-life at 1 µM was 1.47 h. For the same compound, the IC50 in the data set on pSTAT1 is 27.9 nM; in data set [1] it was 0.729 nM; at TYK2-JH2 domain it was 0.136 nM; on JAK1-JH2 domain it was 4.1 nM. Further, the JAK1/TYK2 selectivity at TYK2-JH2 domain was found to be 30.13. For the same compound, in “Kinetic solubility”, the solubility kinetic at 2 h is 83 µM (≈ 41.1 µg/mL).
